Experiments:
P-glycoprotein [1] = test: P-glycoprotein-mediated transport in human Calu3 cells expressing P-glycoprotein assessed as maximum apparent permeability from apical to basolateral side at 50 uM in presence of in presence of 10 uM of p-glycoprotein and MRP transport inducer rifampin; assay type: ADME, cell-based, Calu-3
[2] = Apparent passive permeability across human Calu3 cells at < 10 ug/ml; assay type: ADME, cell-based, Calu-3
[3] = (§1) P-glycoprotein-mediated transport in human Calu3 cells expressing P-glycoprotein assessed as maximum apparent permeability from basolateral to apical side at 50 uM; assay type: ADME, cell-based, Calu-3; settings: calu-3, 50 µM, TDE = time-dependent effect
P-glycoprotein [4] = test: as §1; assay type: ADME, cell-based, Calu-3
P-glycoprotein [5] = test: P-glycoprotein-mediated transport in human Calu3 cells expressing P-glycoprotein assessed as maximum apparent permeability from basolateral to apical side at 50 uM in presence of in presence of 25 uM of p-glycoprotein and MRP transport inducer rifampin; assay type: ADME, cell-based, Calu-3
P-glycoprotein [6] = test: P-glycoprotein-mediated transport in human Calu3 cells expressing P-glycoprotein assessed as maximum apparent permeability from apical to basolateral side at 50 uM in presence of in presence of 25 uM of p-glycoprotein and MRP transport inducer rifampin; assay type: ADME, cell-based, Calu-3
[7] = Cmax in healthy human at 400 […]; assay type: ADME, organism-based; settings: in vivo
P-glycoprotein [8] = test: P-glycoprotein-mediated transport in human Calu3 cells expressing P-glycoprotein assessed as maximum apparent permeability from basolateral to apical side; assay type: ADME, cell-based, Calu-3
P-glycoprotein [9] = test: P-glycoprotein-mediated transport in human Calu3 cells expressing P-glycoprotein assessed as minimum apparent permeability from basolateral to apical side; assay type: ADME, cell-based, Calu-3
P-glycoprotein [10] = test: P-glycoprotein-mediated transport in human Calu3 cells expressing P-glycoprotein assessed as maximum apparent permeability from basolateral to apical side at 50 uM in presence of in presence of 10 uM of p-glycoprotein and MRP transport inducer rifampin; assay type: ADME, cell-based, Calu-3
[11] = P-glycoprotein-mediated transport in human Calu3 cells assessed as efflux ratio of permeability from […] side at 50 uM; assay type: ADME, cell-based; settings: calu-3, 50 µM
[12] = Apparent passive permeability across human Calu3 cells at 350 ug/ml; assay type: ADME, cell-based, Calu-3
[13] = (§2) P-glycoprotein-mediated transport in human Calu3 cells expressing P-glycoprotein assessed as maximum apparent permeability from apical to basolateral side at 50 uM; assay type: ADME, cell-based, Calu-3; settings: calu-3, 50 µM, TDE = time-dependent effect
P-glycoprotein [14] = test: as §2; assay type: ADME, cell-based, Calu-3
P-glycoprotein [15] = test: Activity at P-glycoprotein in human Calu3 cells; assay type: ADME, cell-based, Calu-3

For `COc1c(N2C[C@@H]3CCCN[C@@H]3C2)c(F)cc2c(=O)c(C(=O)O)cn(C3CC3)c12` [MOXIFLOXACIN], the Papp A→B at 50 µM (P-glycoprotein [1]) was 4.35 ×10⁻⁶ cm/s, the Papp [2] was 13.6 ×10⁻⁶ cm/s and the Papp [3] was “tde”. The Papp B→A at 50 µM (P-glycoprotein [4]) was 10.5 ×10⁻⁶ cm/s, the Papp B→A at 50 µM (P-glycoprotein [5]) was 12.5 ×10⁻⁶ cm/s and the Papp A→B at 50 µM (P-glycoprotein [6]) was 4.08 ×10⁻⁶ cm/s. For the same compound, the Cmax [7] was 5000 ng/mL, the Papp B→A (P-glycoprotein [8]) was 13.6 ×10⁻⁶ cm/s and the Papp B→A (P-glycoprotein [9]) was 7.9 ×10⁻⁶ cm/s. For the same compound, the Papp B→A at 50 µM (P-glycoprotein [10]) was 11.9 ×10⁻⁶ cm/s, the Ratio [11] was 2 and the Papp at 350 ug/ml [12] was 7.9 ×10⁻⁶ cm/s. The Papp [13] was “tde”, the Papp A→B at 50 µM (P-glycoprotein [14]) was 5.25 ×10⁻⁶ cm/s and the Km (P-glycoprotein [15]) was 64.6 µg/mL.

From ChEMBL document CHEMBL1649150, “P-glycoprotein-mediated transport of moxifloxacin in a Calu-3 lung epithelial cell model” (Antimicrob Agents Chemother, 2009)
